The source of these data is US20260297068A1, “SOLID FORM OF N-SUBSTITUTED PHENYLSULFONAMIDE COMPOUND” (SHANGHAI LEADO PHARMATECH CO. LTD., priority 2022, published 2026).

Where a name gives a salt, the structure may show the parent alone.

Data set [1] is described as follows: Solid-state stability (HPLC purity and crystal form by XRPD after storage). It counts as physicochemical. As to conditions: for Purity / Initial purity / HPLC purity after storage at 168 h / HPLC purity after storage at 336 h / HPLC purity after storage at 672 h: HPLC; for Initial purity: starting sample before storage; for HPLC purity after storage at 168 h / HPLC purity after storage at 336 h / HPLC purity after storage at 672 h: solid state, open. The method, then: About 10 mg of each solid form of the compound was weighed and added to the HPLC vial, respectively, the bottleneck was sealed with a sealing film, and 10 small holes were made on the film. The vial was placed in 25° C./60% RH and 40° C./75% RH environment for 4 weeks, samples were taken in the 1st week, the 2nd week and the 4th week respectively, the purity (by HPLC analysis) and crystal form (by X ray powder diffraction analysis) of the sample were investigated.

Data set [2] is described as follows: Hygroscopicity by dynamic moisture adsorption (DVS). It is filed as physicochemical. As to conditions: 25° C./80% RH, 0% RH-95% RH adsorption curve. The method, then: Dynamic moisture adsorption (DVS) analysis: the instrument is a DVS Intrinsic produced by SMS company (Surface Measurement Systems); temperature, 25° C.; carrier gas, flow rate: nitrogen, 200 mL/min; mass change per unit time: 0.002%/min; relative humidity range: 0% RH-95% RH.
Dynamic moisture absorption (DVS) was used to test their hygroscopicity.

[3] abbreviates: 25 °C/60% RH/open, 1 week, 10080 min.
The mark [4] stands for this setting: 25 °C/60% RH/open, 2 weeks, 20160 min.
Where [5] appears, read: 25 °C/60% RH/open, 4 weeks, 40320 min.
The mark [6] stands for this setting: 40 °C/75% RH/open, 1 week, 10080 min.
The mark [7] stands for this setting: 40 °C/75% RH/open, 2 weeks, 20160 min.
[8] abbreviates: 40 °C/75% RH/open, 4 weeks, 40320 min.
[9] abbreviates: 25° C./60% RH and 40° C./75% RH, 4 weeks, result in words.

For the compound `CNCc1ccc(NS(=O)(=O)c2ccsc2)c(-c2ccco2)c1` [benzene sulfonate crystal form J, N-(2-(furan-2-yl)-4-((methylamino)methyl)-phenyl)thiophene-3-sulfonamide], the Purity stood at 98.87 area % in data set [1] (setting [3]); 98.85 area % in data set [1] (setting [4]); 98.82 area % in data set [1] (setting [5]); 98.87 area % in data set [1] (setting [6]); 98.82 area % in data set [1] (setting [7]); 98.79 area % in data set [1] (setting [8]). In addition, the Initial purity in data set [1] was determined as 98.87 area %.

For the compound `CNCc1ccc(NS(=O)(=O)c2ccsc2)c(-c2ccco2)c1` [Tartrate crystal form H, N-(2-(furan-2-yl)-4-((methylamino)methyl)phenyl)thiophene-3-sulfonamide], the Purity in data set [1] (setting [3]) was 98.71 area %; in data set [1] (setting [4]), 98.62 area %; in data set [1] (setting [5]), 98.6 area %; in data set [1] (setting [6]), 98.7 area %; in data set [1] (setting [7]) it was 98.6 area %; in data set [1] (setting [8]), 98.53 area %. In addition, in data set [1], the Initial purity is recorded as 98.71 area %.

Regarding `CNCc1ccc(NS(=O)(=O)c2ccsc2)c(-c2ccco2)c1` [Pyroglutamate crystal form I, N-(2-(furan-2-yl)-4-((methylamino)methyl)phenyl)thiophene-3-sulfonamide], the Purity was determined as 98.61 area % in data set [1] (setting [3]); 98.58 area % in data set [1] (setting [4]); 98.57 area % in data set [1] (setting [5]); 98.61 area % in data set [1] (setting [6]); 98.54 area % in data set [1] (setting [7]); 98.32 area % in data set [1] (setting [8]). For the same compound, the Initial purity in data set [1] is on record as 98.61 area %.

Take `CNCc1ccc(NS(=O)(=O)c2ccsc2)c(-c2ccco2)c1` [Phosphate crystal form G, N-(2-(furan-2-yl)-4-((methylamino)methyl)phenyl)thiophene-3-sulfonamide]: the Purity in data set [1] (setting [3]) is listed as 98.11 area %; in data set [1] (setting [4]), 98.09 area %; in data set [1] (setting [5]), 98.04 area %; in data set [1] (setting [6]), 98.11 area %; in data set [1] (setting [7]), 98.06 area %; in data set [1] (setting [8]), 98.01 area %. The compound also came in with an Initial purity in data set [1] of 98.11 area %.

As to `CNCc1ccc(NS(=O)(=O)c2ccsc2)c(-c2ccco2)c1` [fumarate crystal form B, N-(2-(furan-2-yl)-4-((methylamino)methyl)phenyl)thiophene-3-sulfonamide], in data set [2], the “moisture adsorption value (moisture uptake)” value (shortened to “moisture adsorption value”) was 0.2%. Moreover, the Purity in data set [1] (setting [7]) is 98.5 area %; in data set [1] (setting [8]) it was 98.52 area %. In data set [1], this compound had an Initial purity of 98.55 area %. The HPLC purity after storage at 168 h is 98.5% in data set [1] (25 °C/60% RH/open, 1 week) and 98.4% in data set [1] (40 °C/75% RH/open, 1 week). The HPLC purity after storage at 336 h in data set [1] (25 °C/60% RH/open, 2 weeks) was 98.5%. This compound came in with an HPLC purity after storage at 672 h in data set [1] (25 °C/60% RH/open, 4 weeks) of 98.6%.

Turning to `CNCc1ccc(NS(=O)(=O)c2ccsc2)c(-c2ccco2)c1` [free crystal form A, N-(2-(furan-2-yl)-4-((methylamino)methyl)phenyl)thiophene-3-sulfonamide], the “moisture adsorption value” value in data set [2] worked out at 1.6%. For the same compound, in data set [1] (setting [9]), the “HPLC purity change on storage” value is “did not decrease significantly”. Moreover, in data set [1] (setting [9]), the “crystalline phase change on storage (XRPD)” value was “no detectable crystalline phase changes”. Further, the Purity in data set [1] (setting [3]) is listed as 98.18 area %; in data set [1] (setting [4]), 98.14 area %; in data set [1] (setting [5]), 98.1 area %; in data set [1] (setting [6]), 98.19 area %. The Initial purity in data set [1] stood at 98.11 area %. The compound also had an HPLC purity after storage at 336 h in data set [1] (40 °C/75% RH/open, 2 weeks) of 98.2%. In addition, the HPLC purity after storage at 672 h in data set [1] (40 °C/75% RH/open, 4 weeks) was determined as 98.1%.

As for `CNCc1ccc(NS(=O)(=O)c2ccsc2)c(-c2ccco2)c1` [Malonate crystal form K, N-(2-(furan-2-yl)-4-((methylamino)methyl)phenyl)thiophene-3-sulfonamide], the Purity was 98.64 area % in data set [1] (setting [3]); 98.61 area % in data set [1] (setting [4]); 98.59 area % in data set [1] (setting [5]); 98.64 area % in data set [1] (setting [6]); 98.58 area % in data set [1] (setting [7]); 98.46 area % in data set [1] (setting [8]). Besides, the Initial purity in data set [1] was determined as 98.64 area %.

Regarding `CNCc1ccc(NS(=O)(=O)c2ccsc2)c(-c2ccco2)c1` [sulfate crystal form D, N-(2-(furan-2-yl)-4-((methylamino)methyl)phenyl)thiophene-3-sulfonamide], the “moisture adsorption value” value in data set [2] turned out to be 1.3%. Moreover, the Purity in data set [1] (setting [3]) is listed as 98.74 area %; in data set [1] (setting [4]), 98.65 area %; in data set [1] (setting [5]), 98.78 area %; in data set [1] (setting [6]) it was 98.76 area %; in data set [1] (setting [7]), 98.65 area %; in data set [1] (setting [8]), 98.78 area %. Moreover, the Initial purity in data set [1] was 98.77 area %.

`CNCc1ccc(NS(=O)(=O)c2ccsc2)c(-c2ccco2)c1` [succinate crystal form E, N-(2-(furan-2-yl)-4-((methylamino)methyl)phenyl)thiophene-3-sulfonamide]: the “moisture adsorption value” value in data set [2] stood at 0.6%. Moreover, the Purity in data set [1] (setting [3]) worked out at 98.92 area %; in data set [1] (setting [4]), 98.86 area %; in data set [1] (setting [5]) it was 98.94 area %; in data set [1] (setting [6]) it was 98.92 area %; in data set [1] (setting [7]) it was 98.72 area %; in data set [1] (setting [8]), 98.98 area %. Besides, in data set [1], the Initial purity is 98.82 area %.

With `CNCc1ccc(NS(=O)(=O)c2ccsc2)c(-c2ccco2)c1` [malate crystal form F, N-(2-(furan-2-yl)-4-((methylamino)methyl)phenyl)thiophene-3-sulfonamide], the “moisture adsorption value” value in data set [2] is reported as 1.4%. In addition, the Purity in data set [1] (setting [3]) was 98.72 area %; in data set [1] (setting [4]), 98.7 area %; in data set [1] (setting [5]), 98.79 area %; in data set [1] (setting [6]), 98.74 area %; in data set [1] (setting [7]), 98.75 area %; in data set [1] (setting [8]), 98.68 area %. In data set [1], this compound showed an Initial purity of 98.72 area %.

With `CNCc1ccc(NS(=O)(=O)c2ccsc2)c(-c2ccco2)c1` [hydrochloride crystal form C, N-(2-(furan-2-yl)-4-((methylamino)methyl)phenyl)thiophene-3-sulfonamide], the “moisture adsorption value” value in data set [2] stood at 5.5%. For the same compound, the Purity is listed as 98.97 area % in data set [1] (setting [3]); 98.92 area % in data set [1] (setting [4]); 98.87 area % in data set [1] (setting [5]); 99.02 area % in data set [1] (setting [6]); 98.9 area % in data set [1] (setting [7]); 99 area % in data set [1] (setting [8]). The same compound returned an Initial purity in data set [1] of 99.02 area %.
